A short description of data set [1]: Cytotoxicity against BT20 cells by cell viability assay. In kind it is cell-based. As to conditions: human, bt-20; call rule not given here.
A short description of data set [2]: Cellular uptake in BT20 cells in presence of 77 mM sodium azide. In kind it is ADME, cell-based. As to conditions: human, bt-20.

Each structure is given as a SMILES string. Non-standard residues stand in square brackets, D forms with d. Residues, ends and D or L forms follow the SMILES beside them. *: point of attachment. X1 = O=C(O)c1cc(C(=O)*)ccc1-c1c2ccc(=O)cc-2oc2cc(O)ccc12; pY = N[C@@H](Cc1ccc(OP(=O)(O)O)cc1)C(=O)O; 12Ado = NCCCCCCCCCCCC(=O)O Some results are limits rather than exact numbers.

In data set [1], `CC[C@H](C)[C@H](NC(=O)[C@H](CCC(=O)O)NC(=O)[C@H](CCC(=O)O)NC(=O)[C@H](Cc1ccc(OP(=O)(O)O)cc1)NC(=O)CNC(=O)c1ccc(-c2c3ccc(=O)cc-3oc3cc(O)ccc23)c(C(=O)O)c1)C(=O)O` (X1-G[pY]EEI-OH) returned an Activity of more than 96%.

As for `N=C(N)NCCC[C@H](NC(=O)CCCCCCCCCCCNC(=O)[C@H](CCCNC(=N)N)NC(=O)CCCCCCCCCCCNC(=O)[C@H](CCCCN)NC(=O)CNC(=O)c1ccc(-c2c3ccc(=O)cc-3oc3cc(O)ccc23)c(C(=O)O)c1)C(=O)O` (X1-GK[12Ado]R[12Ado]R-OH), the Activity in data set [1] is more than 96%; in data set [2], “Active”.
